From US7851466B2, “Pyrimidine compounds and uses thereof” (Synta Pharmaceuticals Corp., priority 2004, dated 2010)

Key:
[1] = system: adjuvant arthritis (AA) in female Lewis rats; test: Treatment of adjuvant arthritis in rats; format: in vivo, rat; settings: oral administration once a day for 12 days; experiments repeated four times
Experimental: Treatment of adjuvant arthritis in rats: Adjuvant arthritis (AA) was induced in female Lewis rats by the intracutaneous injection (base of the tail) of 0.1 mL of a 10 mg/mL bacterial suspension made from ground, heat-killed Mycobacterium tuberculosis H37Ra suspended in incomplete Freund's adjuvant. Rats were given a test compound orally once a day for 12 days, starting the day following the induction. The development of polyarthritis was monitored daily by macroscopic inspection and assignment of an arthritis index to each animal, during the critical period (days 10 to 25 post-immunization).
The intensity of polyarthritis was scored according to the following scheme: (a) Grade each paw from 0 to 3 based on erythema, swelling, and deformity of the joints: 0 for no erythema or swelling; 0.5 if swelling is detectable in at least one joint; 1 for mild swelling and erythema; 2 for swelling and erythema of both tarsus and carpus; and 3 for ankylosis and bony deformity. Maximum score for all 4 paws was thus 12. […]
Experiments with the AA model were repeated four times. […] The arthritis score used in this model was a reflection of the inflammatory state of the structures monitored and the results therefore show the ability of the test compound to provide relief for this aspect of the pathology.

[2] = system: DNBS-induced distal colitis in Wistar derived rats; test: Dinitrobenzene sulfonic acid-induced inflammatory bowel syndrome model rats; format: in vivo, rat; settings: oral, 24 and 2 hours before DNBS instillation and then daily for 5 days
Experimental: Treatment of Crohn's disease in dinitrobenzene sulfonic acid-induced inflammatory bowel syndrome model rats: Wistar derived male or female rats weighing 200±20 g and fasted for 24 hours were used. Distal colitis was induced by intra-colonic instillation of 2,4-dinitrobenzene sulfonic acid (DNBS, 25 mg in 0.5 mL ethanol 30%) after which air (2 mL) was gently injected through the cannula to ensure that the solution remained in the colon. A test compound and/or vehicle was administered orally 24 and 2 hours before DNBS instillation and then daily for 5 days. One control group was similarly treated with vehicle alone while the other is treated with vehicle plus DNBS. The animals were sacrificed 24 hours after the final dose of test compound administration and each colon was removed and weighed. Colon-to-body weight ratio was then calculated for each animal according to the formula: Colon (g)/BW×100. The “Net” increase in ratio of Vehicle-control+DNBS group relative to Vehicle-control group was used as a base for comparison with test substance treated groups and expressed as “% Deduction.” Pyrimidine compounds of this invention (e.g., Compound 12) reproducibly had about 30% deduction. A 30% or more reduction in colon-to-body weight ratio, relative to the vehicle treated control group, was considered significant.
These experiments were repeated three times and the effects were reproducible.

[3] = system: colitis in T cell-reconstituted C.B-17 SCID mice; test: CD4+ CD45Rb high T cell-reconstituted SCID colitis model mice; format: in vivo, mouse
Experimental: Treatment of Crohn's disease in CD4^+ CD45Rb^high T cell-reconstituted SCID colitis model mice: Spleen cells were prepared from normal female BALB/c mice. For cell purification, the following anti-mouse antibodies were used to label non-CD4^+ T cells: B220 (RA3-6B2), CD11b (M1/70), and CD8α (53-6.72). All antibodies were obtained from BioSource (Camarillo, Calif.). M450 anti-rat IgG-coated magnetic beads (Dynal, Oslo, Norway) were used to bind the antibodies and negative selection was accomplished using an MPC-1 magnetic concentrator. The enriched CD4^+ cells were then labeled for cell sorting with FITC-conjugated CD45RB (16A, Pharmingen, San Diego, Calif.) and PE-conjugated CD4 (CT-CD4, Caltag, Burlingame, Calif.). CD4^+ CD45RB^high cells were operationally defined as the upper 40% of CD45Rb-staining CD4^+ cells and sorted under sterile conditions by flow cytometry. Harvested cells were resuspended at 4×10^6/mL in PBS and injected 100 μL intraperitoneally into female C.B-17 SCID mice. Pyrimidine compounds of this invention (e.g., Compound 12) and/or vehicle was orally administered once a day, 5 days per week, starting the day following the transfer. The transplanted SCID mice were weighed weekly and their clinical condition was monitored.
Colon tissue samples were fixed in 10% buffered formalin and embedded in paraffin. Sections (4 μm) collected from ascending, transverse, and descending colon were cut and stained with hematoxylin and eosin. The severity of colitis was determined based on histological examination of the distal colon sections, whereby the extent of colonic inflammation was graded on a scale of 0-3 in each of four criteria: crypt elongation, cell infiltration, depletion of goblet cells, and the number of crypt abscesses.
LP lymphocytes were isolated from freshly obtained colonic specimens. After removal of payer's patches, the colon was washed in Ca/Mg-free HBSS, cut into 0.5 cm pieces and incubated twice in HBSS containing EDTA (0.75 mM), DTT (1 mM), and antibiotics (amphotericin 2.5 μg/mL, gentamicin 50 μg/mL from Sigma) at 37° C. for 15 min. Next, the tissue was digested further in RPMI containing 0.5 mg/mL collagenase D, 0.01 mg/mL DNase I (Boehringer Manheim), and antibiotics at 37° C. […]
To measure cytokine production, 48-well plates were coated with 10 μg/mL murine anti-CD3ε antibody (145-2C11) in carbonate buffer (PH 9.6) overnight at 4° C. […] Murine IFNγ was measured using an ELISA kit from Endogen (Cambridge, Mass.), according to the manufacturer's instructions.
The calculated colon-to-body weight ratio was consistent with the histological score, showing attenuation by treatment with the test compound.

IL-23 = test: Inhibition of IL-23 in stimulated human PBMC (p19 capture ELISA); format: cell-based
From the text: The level of inhibition of IL-23 inhibition by a compound of the invention can be measured by a similar assay in which human peripheral blood mononuclear cells (PBMC) or human monocytic cell line (THP-1) are stimulated with a combination of human interferon-γ (IFNγ) and lipopolysaccharide (LPS) or a combination of IFNγ and Staphylococcus aureus Cowan I (SAC) in the presence of a test compound. The level of inhibition of IL-23 production can be measured by determining the amount of p19 by using a sandwich ELISA assay with antibodies the recognize p19 subunit of IL-23. IC50 of the test compound can then be determined. One such assay is disclosed herein in Example 30.
Therefore, inhibition of IL-23 in addition to IL-12 is expected. In order to confirm the hypothesis, an assay was established to specifically detect IL-23 using polyclonal antibodies recognizing p19 (R&D Systems, MN), an IL-23 specific subunit. A 96-well plate was coated with the antibodies at 1 μg/ml, and after washing incubated with the supernatants of human peripheral blood mononuclear cells (PBMC). The culture was stimulated with 1 μg/ml of liposaccharide (LPS) (FIG. 2) or 0.025% of S. aureus Cowan I (SAC) (FIG. 1) in the presence of test compound after IFN-γ priming. The captured IL-23 was then detected by a biotinylated goat anti-human p40 antibody that binds to p40 subunit of human IL-12 and IL-23 as a monomer or in the context of the respective heterodimer (Part 840099 of product DY1240 from R&D Systems). The plate was developed by incubation with streptavidin-HRP and then substrate solution (R&D Systems Cat # DY999). Recombinant IL-23 (R&D Systems) was added as standard in the assay. The estimated detection range is from 0.1 to 10 ng/ml, and 1 ng/ml recombinant IL-12 heterodimer (Cell Sciences, MA) and p40 monomer (R&D Systems) were under detection limit. To compare with the inhibition of IL-23, the supernatant was also analyzed for IL-12 heterodimer and total p40 proteins using IL-12 specific ELISA kit (Cell Sciences) and p40 ELISA kit (R&D Systems) respectively.

Cc1cccc(C=NNc2cc(N3CCOCC3)nc(OCCc3ccccn3)n2)c1 [Compound 12, N-(3-methyl-benzylidene)-N′-[6-morpholin-4-yl-2-(2-pyridin-2-yl-ethoxy)-pyrimidin-4-yl]-hydrazine]
arthritic score [1]: reproducibly reduced the arthritic score
development of polyarthritis [1]: delayed the development of polyarthritis in a dose-dependent manner
% Deduction (net increase in colon-to-body weight ratio) [2]: about 30%
IFNγ production by LP cells ([3]; LP cells ex vivo in response to anti-CD3 antibody and anti-CD28 antibody, 48 h): greatly diminished the production
colon-to-body weight ratio ([3]; oral administration): attenuation
colonic inflammation (histological analysis) ([3]; oral administration once a day, 5 days per week, compared to vehicle control): reduced colonic inflammation
suppressive effect on colonic inflammation at 10 mg/kg ([3]; oral, dose of 10 mg/kg): substantial reduction
inhibition of IL-23 (IL-23; IFN-γ/SAC and IFN-γ/LPS-stimulated human PBMC): inhibited by compound 12 in a dose-dependent manner
inhibitory activity against IL-23 compared with that against IL-12 (IL-23; stimulated human PBMC): slightly lower than that against IL-12
inhibitory activity against IL-23 compared with that against p40 (IL-23; stimulated human PBMC): comparable to that against p40
